Source: patent publication US7074789B2, “Kinase inhibitors” (Amgen Inc., priority 1999, dated 2006)

Legend:
Type in all cases: biochemical
Itk = target: T1, Itk (Homo sapiens, UniProt Q08881); experiment: Kinase inhibition assay (33P transfer), Itk; details: Table 3; for IC50: read-out: Itk-1
T1 construct: Kinases are expressed as either kinase domains or full length constructs; made in house
T1 sequence (Q08881 1-620): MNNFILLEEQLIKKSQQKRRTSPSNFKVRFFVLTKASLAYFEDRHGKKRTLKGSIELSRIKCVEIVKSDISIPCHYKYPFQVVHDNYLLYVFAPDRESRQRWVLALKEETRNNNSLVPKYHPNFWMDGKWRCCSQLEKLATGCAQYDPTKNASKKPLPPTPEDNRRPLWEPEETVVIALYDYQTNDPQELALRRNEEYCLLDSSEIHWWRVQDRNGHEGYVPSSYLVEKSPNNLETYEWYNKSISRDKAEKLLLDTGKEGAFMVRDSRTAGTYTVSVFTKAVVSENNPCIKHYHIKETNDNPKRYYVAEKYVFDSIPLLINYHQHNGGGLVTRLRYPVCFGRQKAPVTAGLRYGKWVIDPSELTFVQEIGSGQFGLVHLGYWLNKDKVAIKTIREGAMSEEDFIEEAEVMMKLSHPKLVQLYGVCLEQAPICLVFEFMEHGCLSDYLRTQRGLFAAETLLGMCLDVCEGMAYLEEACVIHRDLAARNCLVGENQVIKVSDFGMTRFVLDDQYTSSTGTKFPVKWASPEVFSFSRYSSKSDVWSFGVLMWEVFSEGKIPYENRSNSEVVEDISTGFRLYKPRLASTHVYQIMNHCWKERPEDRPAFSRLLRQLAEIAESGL
Procedure, shortened: (§1)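 Recombinant kinase domains or full-length GST- or His-tagged constructs, from E. coli or baculovirus/High Five cells, sometimes with regulatory polypeptides. Transfer of 33P from ATP to plate-bound poly(Glu,Tyr) 4:1 or poly(Arg,Ser) 3:1 counted by liquid scintillation after phosphoric acid wash; IC50 is the concentration halving incorporation.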

Kdr = target: T2, Kdr (Homo sapiens, UniProt P35968); experiment: Kinase inhibition assay (33P transfer), Kdr; details: Table 3; for IC50: read-out: KDR-1
T2 construct: Kinases are expressed as either kinase domains or full length constructs; made in house
Procedure, shortened: (§2)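 Kinase domain or full-length constructs, GST- or polyHis-tagged, expressed in E. coli or baculovirus-High Five cells, sometimes with regulatory polypeptides. Activity measured as 33PO4 transfer from ATP to plate-bound poly(Glu,Tyr) 4:1 or poly(Arg,Ser) 3:1; after incubation, plates washed with 0.5% phosphoric acid and counted by liquid scintillation.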

Tek = target: T3, Tek (Homo sapiens, UniProt Q02763); experiment: Kinase inhibition assay (33P transfer), Tek; details: read-out: Tek-1
T3 construct: Kinases are expressed as either kinase domains or full length constructs; made in house
Procedure, shortened: as §1

Hck-1 = target: T4, Hck-1 (Homo sapiens, UniProt P08631); experiment: Kinase inhibition assay (33P transfer), Hck; details: Table 6, Hck-1 kinase inhibition class
T4 construct: Kinases are expressed as either kinase domains or full length constructs; made in house

Lyn = target: T5, Lyn (Homo sapiens, UniProt P07948); experiment: Kinase inhibition assay (33P transfer), Lyn; details: Table 6, Lyn-1 kinase inhibition class
T5 construct: Kinases are expressed as either kinase domains or full length constructs; made in house
Procedure, shortened: as §1

IGFR-1 = target: T6, IGFR-1 (Homo sapiens, UniProt P08069); experiment: Kinase inhibition assay (33P transfer), IGFR-1; details: Table 2, kinase inhibition class
T6 construct: Kinases are expressed as either kinase domains or full length constructs; made in house

Fyn = target: T7, Fyn (Homo sapiens, UniProt P06241); experiment: Kinase inhibition assay (33P transfer), Fyn; details: for IC50: read-out: Fyn-1
T7 construct: Kinases are expressed as either kinase domains or full length constructs; made in house
Procedure, shortened: as §1

FGFR1 = target: T8, FGFR1 (Homo sapiens, UniProt P11362); experiment: Kinase inhibition assay (33P transfer), FGFR1; details: read-out: FGFR1-1
T8 construct: Kinases are expressed as either kinase domains or full length constructs; made in house

c-Met = target: T9, c-Met (Homo sapiens, UniProt P08581); experiment: Kinase inhibition assay (33P transfer), c-Met; details: Table 2, kinase inhibition class; for IC50: read-out: Met-1
T9 construct: Kinases are expressed as either kinase domains or full length constructs; made in house
Procedure, shortened: as §1

AKT = target: T10, AKT (Homo sapiens, UniProt Q9Y243); experiment: Kinase inhibition assay (33P transfer), AKT; details: Table 2, kinase inhibition class; for IC50: read-out: AKT3-1
T10 construct: Kinases are expressed as either kinase domains or full length constructs; made in house
Procedure, shortened: as §2

Lck = target: T11, Lck (Homo sapiens, UniProt P06239); experiment: Kinase inhibition assay (33P transfer), Lck; details: Table 3; for IC50: read-out: Lck-1
T11 construct: Kinases are expressed as either kinase domains or full length constructs; made in house
Procedure, shortened: as §2

Zap-70 = target: T12, Zap-70 (Homo sapiens, UniProt P43403); experiment: Kinase inhibition assay (33P transfer), Zap-70; details: Table 3; for IC50: read-out: Zap-1
T12 construct: Kinases are expressed as either kinase domains or full length constructs; made in house
T12 sequence (P43403 1-619): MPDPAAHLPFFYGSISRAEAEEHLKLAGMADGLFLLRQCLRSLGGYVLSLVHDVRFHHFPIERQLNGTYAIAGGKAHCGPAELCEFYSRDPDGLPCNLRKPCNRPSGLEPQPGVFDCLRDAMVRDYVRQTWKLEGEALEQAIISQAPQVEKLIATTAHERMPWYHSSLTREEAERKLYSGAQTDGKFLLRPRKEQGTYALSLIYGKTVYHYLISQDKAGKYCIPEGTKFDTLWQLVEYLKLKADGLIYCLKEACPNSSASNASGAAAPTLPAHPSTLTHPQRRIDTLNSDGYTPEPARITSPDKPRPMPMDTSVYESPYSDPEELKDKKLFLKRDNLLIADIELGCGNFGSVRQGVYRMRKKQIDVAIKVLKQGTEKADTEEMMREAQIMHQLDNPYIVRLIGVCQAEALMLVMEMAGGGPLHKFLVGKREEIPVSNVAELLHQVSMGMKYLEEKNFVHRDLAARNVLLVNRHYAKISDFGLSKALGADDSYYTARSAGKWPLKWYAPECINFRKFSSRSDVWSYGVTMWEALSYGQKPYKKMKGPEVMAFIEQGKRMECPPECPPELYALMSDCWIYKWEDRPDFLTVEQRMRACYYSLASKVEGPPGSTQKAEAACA
Procedure, shortened: as §2

EGFR = target: T13, EGFR (Homo sapiens, UniProt P00533); experiment: Kinase inhibition assay (33P transfer), EGFR; details: Table 2, kinase inhibition class; for IC50: read-out: EGFR-1
T13 construct: Kinases are expressed as either kinase domains or full length constructs; made in house
Procedure, shortened: as §1

ErbB4 = target: T14, ErbB4 (Homo sapiens, UniProt Q15303); experiment: Kinase inhibition assay (33P transfer), ErbB4; details: read-out: ErbB4-1
T14 construct: Kinases are expressed as either kinase domains or full length constructs; made in house

T4 sequence (P08631 whole entry, the tested form may be a part): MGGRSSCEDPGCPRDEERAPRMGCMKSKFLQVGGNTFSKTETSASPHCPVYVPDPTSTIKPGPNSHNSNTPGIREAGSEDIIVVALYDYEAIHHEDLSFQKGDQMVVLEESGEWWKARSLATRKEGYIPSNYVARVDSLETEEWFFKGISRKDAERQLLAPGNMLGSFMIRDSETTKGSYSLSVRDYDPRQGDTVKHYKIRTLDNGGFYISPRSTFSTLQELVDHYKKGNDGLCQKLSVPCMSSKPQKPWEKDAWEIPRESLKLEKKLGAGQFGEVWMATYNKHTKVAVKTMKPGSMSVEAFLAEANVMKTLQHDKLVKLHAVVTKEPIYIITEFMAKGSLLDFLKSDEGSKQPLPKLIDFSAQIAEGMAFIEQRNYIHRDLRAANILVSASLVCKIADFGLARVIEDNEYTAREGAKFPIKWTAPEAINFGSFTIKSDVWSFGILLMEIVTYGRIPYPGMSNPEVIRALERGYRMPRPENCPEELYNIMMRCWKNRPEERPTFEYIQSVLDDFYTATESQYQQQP
T8 sequence (P11362 22-822, species assumed): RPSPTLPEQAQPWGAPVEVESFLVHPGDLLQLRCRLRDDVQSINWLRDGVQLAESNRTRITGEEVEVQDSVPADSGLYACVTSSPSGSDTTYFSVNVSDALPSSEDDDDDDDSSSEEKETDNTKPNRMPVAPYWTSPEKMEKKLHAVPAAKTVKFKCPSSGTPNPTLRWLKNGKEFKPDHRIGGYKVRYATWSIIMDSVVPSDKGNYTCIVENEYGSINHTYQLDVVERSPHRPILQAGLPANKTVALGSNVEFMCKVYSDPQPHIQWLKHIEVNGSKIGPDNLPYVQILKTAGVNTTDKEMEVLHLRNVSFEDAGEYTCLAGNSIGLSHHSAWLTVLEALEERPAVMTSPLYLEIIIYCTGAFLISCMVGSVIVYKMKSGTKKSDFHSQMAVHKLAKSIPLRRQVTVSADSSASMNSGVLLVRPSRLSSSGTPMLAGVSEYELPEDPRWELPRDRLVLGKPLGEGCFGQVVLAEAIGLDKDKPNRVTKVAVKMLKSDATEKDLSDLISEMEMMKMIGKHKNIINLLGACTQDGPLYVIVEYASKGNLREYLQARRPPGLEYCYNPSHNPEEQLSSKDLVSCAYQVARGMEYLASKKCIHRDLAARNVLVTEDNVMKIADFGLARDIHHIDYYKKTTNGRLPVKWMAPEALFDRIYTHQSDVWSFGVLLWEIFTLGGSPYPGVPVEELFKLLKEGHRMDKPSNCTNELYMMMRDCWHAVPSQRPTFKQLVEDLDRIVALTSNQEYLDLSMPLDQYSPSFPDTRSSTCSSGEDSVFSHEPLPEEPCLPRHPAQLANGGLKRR
T10 sequence (Q9Y243 whole entry, the tested form may be a part): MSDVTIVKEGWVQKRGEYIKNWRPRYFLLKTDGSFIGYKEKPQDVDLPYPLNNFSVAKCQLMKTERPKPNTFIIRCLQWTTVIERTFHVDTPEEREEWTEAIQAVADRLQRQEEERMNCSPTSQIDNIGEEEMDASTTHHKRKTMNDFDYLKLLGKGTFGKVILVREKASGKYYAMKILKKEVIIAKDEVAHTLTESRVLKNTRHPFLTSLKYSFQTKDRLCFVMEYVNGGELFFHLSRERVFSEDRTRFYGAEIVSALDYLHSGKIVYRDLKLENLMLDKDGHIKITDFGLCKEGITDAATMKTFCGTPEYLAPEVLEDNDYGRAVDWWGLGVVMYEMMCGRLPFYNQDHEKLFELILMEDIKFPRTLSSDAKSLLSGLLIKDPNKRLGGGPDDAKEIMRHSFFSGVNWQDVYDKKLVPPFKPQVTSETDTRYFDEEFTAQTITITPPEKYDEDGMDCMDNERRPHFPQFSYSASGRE
T11 sequence (P06239 whole entry, species assumed, the tested form may be a part): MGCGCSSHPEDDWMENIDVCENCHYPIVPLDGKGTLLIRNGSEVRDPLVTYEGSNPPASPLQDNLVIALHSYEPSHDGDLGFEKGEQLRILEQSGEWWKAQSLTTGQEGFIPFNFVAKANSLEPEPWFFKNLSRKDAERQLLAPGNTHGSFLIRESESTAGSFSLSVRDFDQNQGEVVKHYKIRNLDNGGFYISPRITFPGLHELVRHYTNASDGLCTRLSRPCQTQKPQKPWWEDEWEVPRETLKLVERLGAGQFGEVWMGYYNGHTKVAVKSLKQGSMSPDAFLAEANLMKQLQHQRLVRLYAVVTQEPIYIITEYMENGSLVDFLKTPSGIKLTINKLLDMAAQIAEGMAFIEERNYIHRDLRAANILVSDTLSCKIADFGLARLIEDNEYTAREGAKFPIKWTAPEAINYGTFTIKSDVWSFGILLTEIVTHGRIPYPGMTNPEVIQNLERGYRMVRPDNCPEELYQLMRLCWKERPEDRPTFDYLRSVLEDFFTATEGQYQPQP
T2 sequence (P35968 20-1356, species assumed): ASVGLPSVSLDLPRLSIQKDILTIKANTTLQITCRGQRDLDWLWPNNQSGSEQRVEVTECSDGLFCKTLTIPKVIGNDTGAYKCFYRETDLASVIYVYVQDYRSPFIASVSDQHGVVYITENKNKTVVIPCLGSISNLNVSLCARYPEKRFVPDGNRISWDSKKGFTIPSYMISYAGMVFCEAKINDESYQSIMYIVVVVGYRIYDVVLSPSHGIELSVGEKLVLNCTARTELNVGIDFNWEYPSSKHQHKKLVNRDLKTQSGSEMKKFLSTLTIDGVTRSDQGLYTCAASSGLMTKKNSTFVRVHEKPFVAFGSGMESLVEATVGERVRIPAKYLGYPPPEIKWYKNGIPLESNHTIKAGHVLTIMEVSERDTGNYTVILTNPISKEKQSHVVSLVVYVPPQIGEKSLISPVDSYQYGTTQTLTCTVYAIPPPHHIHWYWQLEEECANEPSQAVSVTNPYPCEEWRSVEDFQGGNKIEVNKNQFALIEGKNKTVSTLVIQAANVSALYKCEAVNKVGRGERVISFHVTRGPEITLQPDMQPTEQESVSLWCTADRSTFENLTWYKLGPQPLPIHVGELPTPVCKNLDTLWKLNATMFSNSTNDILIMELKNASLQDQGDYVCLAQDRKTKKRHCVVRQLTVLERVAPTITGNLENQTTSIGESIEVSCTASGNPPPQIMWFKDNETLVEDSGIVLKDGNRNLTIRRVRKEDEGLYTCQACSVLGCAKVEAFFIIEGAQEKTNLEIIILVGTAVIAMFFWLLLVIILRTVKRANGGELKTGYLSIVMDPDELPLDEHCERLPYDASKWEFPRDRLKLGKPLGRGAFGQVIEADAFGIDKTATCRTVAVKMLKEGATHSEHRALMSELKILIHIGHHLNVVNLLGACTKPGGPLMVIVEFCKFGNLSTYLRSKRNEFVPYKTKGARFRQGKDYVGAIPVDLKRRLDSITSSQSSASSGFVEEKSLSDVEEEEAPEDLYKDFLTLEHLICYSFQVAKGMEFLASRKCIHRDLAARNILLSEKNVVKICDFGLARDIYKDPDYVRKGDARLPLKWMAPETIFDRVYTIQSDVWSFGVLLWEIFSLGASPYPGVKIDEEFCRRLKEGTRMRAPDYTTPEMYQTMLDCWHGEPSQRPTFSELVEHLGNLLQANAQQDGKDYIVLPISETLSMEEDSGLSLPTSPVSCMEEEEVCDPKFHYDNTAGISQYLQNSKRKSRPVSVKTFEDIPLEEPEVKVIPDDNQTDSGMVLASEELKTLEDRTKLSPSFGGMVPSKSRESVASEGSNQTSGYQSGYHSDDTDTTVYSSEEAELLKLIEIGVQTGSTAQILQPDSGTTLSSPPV
T3 sequence (Q02763 23-1124, species assumed): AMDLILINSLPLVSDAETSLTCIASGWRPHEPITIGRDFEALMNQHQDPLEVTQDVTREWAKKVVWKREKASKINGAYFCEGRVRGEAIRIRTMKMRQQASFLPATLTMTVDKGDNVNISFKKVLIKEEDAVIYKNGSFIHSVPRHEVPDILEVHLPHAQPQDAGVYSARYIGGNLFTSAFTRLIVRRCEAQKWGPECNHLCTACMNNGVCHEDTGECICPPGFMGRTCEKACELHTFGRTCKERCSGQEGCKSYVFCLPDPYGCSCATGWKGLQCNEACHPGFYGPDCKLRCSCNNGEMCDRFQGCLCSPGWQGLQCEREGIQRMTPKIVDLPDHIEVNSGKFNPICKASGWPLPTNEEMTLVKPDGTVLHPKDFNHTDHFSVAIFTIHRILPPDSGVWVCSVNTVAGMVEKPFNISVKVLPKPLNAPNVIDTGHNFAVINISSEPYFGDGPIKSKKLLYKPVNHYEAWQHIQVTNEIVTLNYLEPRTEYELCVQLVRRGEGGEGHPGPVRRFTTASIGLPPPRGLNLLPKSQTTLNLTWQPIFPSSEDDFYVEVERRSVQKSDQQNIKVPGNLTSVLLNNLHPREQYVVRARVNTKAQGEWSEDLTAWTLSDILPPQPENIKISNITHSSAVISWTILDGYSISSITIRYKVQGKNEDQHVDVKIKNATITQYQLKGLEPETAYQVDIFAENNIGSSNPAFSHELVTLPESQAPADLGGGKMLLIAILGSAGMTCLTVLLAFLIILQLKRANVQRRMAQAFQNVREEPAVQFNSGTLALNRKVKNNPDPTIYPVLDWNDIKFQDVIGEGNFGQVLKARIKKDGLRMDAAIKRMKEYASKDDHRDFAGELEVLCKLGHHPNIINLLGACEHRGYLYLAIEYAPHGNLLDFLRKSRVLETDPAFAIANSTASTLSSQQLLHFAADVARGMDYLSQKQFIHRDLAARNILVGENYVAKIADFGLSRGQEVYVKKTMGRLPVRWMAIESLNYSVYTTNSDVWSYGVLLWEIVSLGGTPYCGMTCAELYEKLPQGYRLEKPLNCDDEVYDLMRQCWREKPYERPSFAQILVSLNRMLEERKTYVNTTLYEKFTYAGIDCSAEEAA

SMILES	IC50 (Itk)	IC50 (Kdr)	IC50 (Tek)	IC50 (Hck-1)	IC50 (Lyn)	IC50 (IGFR-1)	IC50 (Fyn)	IC50 (FGFR1)	IC50 (c-Met)	IC50 (AKT)	IC50 (Lck)	IC50 (Zap-70)	IC50 (EGFR)	other results
COc1cc(Nc2ncnc(N3CCc4ccccc43)n2)cc(OC)c1OC [Compound 184]	> 11.9 µM	< 1.05 µM	> 11.9 µM	> 11.9 µM	1.05 to 6.33 µM	> 11.9 µM	1.05 to 6.33 µM	6.33 to 9.22 µM	9.22 to 11.9 µM	> 11.9 µM	1.05 to 6.33 µM	> 11.9 µM	> 11.9 µM	
COc1ccc(Nc2ncnc(Nc3cc(OC)c(OC)c(OC)c3)n2)cn1 [Compound 28]														Itk-1 (Itk): E (E>4.5 ug/mL); KDR-1 (Kdr): A (A<0.4 ug/mL); Hck-1 (Hck-1): E (E>4.5 ug/mL); Lyn-1 (Lyn): B (B>0.4 and <2.4 ug/mL); IGFR-1 (IGFR-1): B (B>0.4 and <2.4 ug/mL); Fyn-1 (Fyn): B (B>0.4 and <2.4 ug/mL); Met-1 (c-Met): E (E>4.5 ug/mL); AKT3-1 (AKT): E (E>4.5 ug/mL); Lck-1 (Lck): B (B>0.4 and <2.4 ug/mL); Zap-1 (Zap-70): E (E>4.5 ug/mL); EGFR-1 (EGFR): B (B>0.4 and <2.4 ug/mL)
COc1ccc(N(C)c2ncnc(Nc3cc(OC)c(OC)c(OC)c3)n2)cc1 [Compound 106]	> 11.3 µM	< 1.01 µM	> 11.3 µM			6.04 to 8.81 µM		1.01 to 6.04 µM	1.01 to 6.04 µM	> 11.3 µM	6.04 to 8.81 µM	> 11.3 µM	1.01 to 6.04 µM	IC50 (ErbB4): 6.04 to 8.81 µM

Further lines, with some results ahead:

IC50 (Itk)	IC50 (Kdr)	IC50 (Tek)	IC50 (Hck-1)	IC50 (Lyn)	IC50 (IGFR-1)	IC50 (Fyn)	IC50 (FGFR1)	IC50 (c-Met)	IC50 (AKT)	IC50 (Lck)	IC50 (Zap-70)	IC50 (EGFR)	SMILES	other results
0.856 to 5.13 µM	< 0.856 µM	5.13 to 7.49 µM	5.13 to 7.49 µM	0.856 to 5.13 µM	< 0.856 µM	5.13 to 7.49 µM	0.856 to 5.13 µM	< 0.856 µM	5.13 to 7.49 µM	0.856 to 5.13 µM	> 9.63 µM	0.856 to 5.13 µM	COCCOc1ccc(Nc2ncnc(Nc3cc(-c4ccco4)n[nH]3)n2)cc1OCCOC [Compound 328]	
> 13.3 µM	< 1.18 µM	> 13.3 µM	> 13.3 µM	> 13.3 µM	> 13.3 µM	10.3 to 13.3 µM	> 13.3 µM	> 13.3 µM	> 13.3 µM	> 13.3 µM	> 13.3 µM	> 13.3 µM	COc1cc(Nc2ncnc(-c3ccccc3)n2)cc(OC)c1OC [Compound 970]	
0.963 to 5.78 µM	0.963 to 5.78 µM	> 10.8 µM			8.42 to 10.8 µM		> 10.8 µM	< 0.963 µM	> 10.8 µM	0.963 to 5.78 µM	5.78 to 8.42 µM	< 0.963 µM	COc1ccc(Nc2ncnc(Nc3ccc(Oc4ccccc4)cc3)n2)cc1OC [Compound 929]	IC50 (ErbB4): 0.963 to 5.78 µM
6.04 to 8.81 µM	< 1.01 µM	> 11.3 µM	> 11.3 µM	< 1.01 µM	< 1.01 µM	1.01 to 6.04 µM	1.01 to 6.04 µM	> 11.3 µM	> 11.3 µM	< 1.01 µM	> 11.3 µM	1.01 to 6.04 µM	COc1cc(Nc2ncnc(Nc3ccc4c(c3)OCO4)n2)cc(OC)c1OC [Compound 252]	
> 11.5 µM	< 1.02 µM	> 11.5 µM	> 11.5 µM	> 11.5 µM	> 11.5 µM	> 11.5 µM	> 11.5 µM	8.94 to 11.5 µM	> 11.5 µM	8.94 to 11.5 µM	8.94 to 11.5 µM	> 11.5 µM	COc1cc(Nc2ncnc(-n3cc(C)c4ccccc43)n2)cc(OC)c1OC [Compound 323]	
